Data on 3 compounds can be found in article PMC10244169, “Psychedelics promote plasticity by directly binding to BDNF receptor TrkB” (Nature Neuroscience, 2023).

For one test, the target named is T1, TrkB (Rattus norvegicus, UniProt Q63604).
T1 construct: expressed in transfected cells; host or cells: HEK293T
In words: Competition binding with biotinylated R,R-HNK. The conditions noted are these: ext fig 1g. The method, then:
Binding assays were performed as previously described with minor modifications. […] Samples from mouse embryo (E18) brains were also lysed, vortexed, sonicated and centrifuged for binding assays. Plates were then washed with PBS. […] For the competition binding assays with biotinylated R,R-HNK, the amino-biotinylation of R,R-HNK was performed using a commercial kit (Thermo Scientific, EZ-Link NHS-PEG4 Biotinylation Kit, 21455) and the reaction monitored by MS. A mixture of biotinylated R,R-HNK (10 µM) and unlabeled compounds (1 pM to 10 µM) in PBS was added to the 96-well plates containing the immunoprecipitated TrkB and incubated for 1 h at room temperature. […] Luminescence was determined via streptavidin conjugated with horseradish peroxidase (HRP; Thermo Fisher Scientific, 21126; 1:5,000, 1 h at room temperature) in reaction with the Pierce ECL substrate (Thermo Fisher Scientific, 32106). Luminescence from blank wells that contained all reagents but the sample lysates was used to determine nonspecific binding. To obtain the binding curves, results from binding assays were fitted to the equation of specific binding with Hill slope from GraphPad Prism 9.2. To calculate koff values, results were fitted to the equation of dissociation of one phase exponential decay from GraphPad Prism 9.2.

For the next test, the system named is mice. The test is described as follows: Repeated forced swimming test (rFST). The class given is in vivo, mouse. How it is done:
rFST was conducted in WT and Y433F^+/− mice as described in literature[33],[92] with minor modifications. Briefly, female and male adult mice were exposed to five consecutive pretest sessions (5 min of duration, 24 h apart). […] The animals were submitted to a 5 min test session 7 days after the drug administration. The apparatus consisted of 5 l glass beaker cylinders (19 cm diameter, 20 cm water column at 23 ± 2 °C). The water was changed between each trial, for each animal. After each session, the animals were dried and kept in a warmed cage before returning to their home cages. The pretest and test sessions were recorded and analyzed by a trained observer blind to treatment and genotype.

Test [1] addresses T2, TrkB:PLCγ1 colocalization (Rattus norvegicus, UniProt Q63604).
T2 construct: endogenous in cells; host or cells: rat hippocampal neuronal cultures (DIV21)
In words: dSTORM/TIRF single-molecule colocalization in dendritic spines of hippocampal neurons. The class given is cell-based. The conditions noted are these: 100 nM, 1 h; for Manders colocalization coefficient, group mean (5b) / Manders colocalization coefficient, group mean (5c): averaged per neuron; for Manders colocalization coefficient, group mean (5b): vehicle 0.2835; for Manders colocalization coefficient, group mean (5c): vehicle 0.3968. The method, then: Then, dishes were fixed with 4% paraformaldehyde (PFA) containing 0.1 µm TetraSpeck beads (Invitrogen, T7279; 1:100). After washing with PBS, dishes were incubated with the blocking buffer (0.1% Triton X-100, 0.05% Tween-20, 10% normal donkey serum, 1% BSA and 0.1% gelatin in PBS) for 1 h at room temperature. Next, dishes were incubated with goat anti-TrkB (R&D Systems, AF1494; 1:100) and rabbit anti-PLCγ1 (Cell Signaling Technologies, 5690S; 1:100) primary antibodies diluted in detergent-free blocking buffer overnight at 4 °C. After washing with PBS, dishes were incubated with Alexa Fluor 647-conjugated donkey anti-goat (Invitrogen, A32849; 1:500) and CF568-conjugated donkey anti-rabbit (Biotium, 20098; 1:500) secondary antibodies in PBS. Dishes were washed and stored in PBS until imaging. For dSTORM/TIRF, we used fresh blinking buffer (0.5 mg ml^−1 glucose oxidase, 40 µg ml^−1 catalase, 10% glucose, 10 mM NaCl, 10 mM cysteamine and 50 mM Tris–HCl, pH 8.0). We used a Nikon Eclipse Ti-E N-STORM/TIRF microscope equipped with an ApoTIRF 100×/1.49 numerical aperture (NA) objective, a Perfect Focus System for Z focus stabilization, an Andor iXon + 897 back-illuminated EMCCD camera (512 × 512), laser lines 405 nm (100 mW), 561 nm (150 mW) and 647 nm (300 mW) and a 405/488/561/647 nm laser quad band filter cube. Image acquisition was performed with the central 256 × 256 pixels and a total of 20,000 frames (exposure time of 15 ms) for both channels using the NIS-Elements Advanced Research software (Nikon). The 405 nm laser was progressively raised to maintain a constant number of localizations per frame. After chromatic aberration correction by correlation with the fluorescent bead fiducials, fitting of the blinking events to build the single-molecule localization coordinate map and drift correction were performed using the Huygens Localizer 21.04 software (Scientific Volume Imaging). Before identifying particles, the first 512 frames of each channel were discarded, a temporal filter length (factor 30) was applied to determine background signal, and data were prefiltered through the standard deviation of a Gaussian filter (σ = 1.0). Next, a threshold calculated from the standard deviation of unfiltered data was multiplied by a factor of 0.75 for the red and 1.5 for the far-red channels and applied to distinguish particles from the background. Pixels from filtered data with values larger than the threshold were considered as candidates for single-molecule localizations. Pixels in filtered data with higher values than surrounding pixels were detected as local maxima. The least-squares fitting was applied for subpixel localization of detected particles, with a fixed full width at half maximum of the Gaussian point spread function of 256 nm. Finally, the resulting single-molecule localization coordinate maps were analyzed with Coloc-Tesseler 1.0 (ref. [79]) by an experimenter blinded to treatment to compute the Manders colocalization coefficients of TrkB (M^TrkB) and PLCγ1 (M^PLCγ1) in dendritic spines on the basis of their overlapping Voronoi diagrams.

[2] abbreviates: 7 d, saline minus LSD, Bonferroni's multiple comparisons test.

T1 sequence (Q63604 32-821): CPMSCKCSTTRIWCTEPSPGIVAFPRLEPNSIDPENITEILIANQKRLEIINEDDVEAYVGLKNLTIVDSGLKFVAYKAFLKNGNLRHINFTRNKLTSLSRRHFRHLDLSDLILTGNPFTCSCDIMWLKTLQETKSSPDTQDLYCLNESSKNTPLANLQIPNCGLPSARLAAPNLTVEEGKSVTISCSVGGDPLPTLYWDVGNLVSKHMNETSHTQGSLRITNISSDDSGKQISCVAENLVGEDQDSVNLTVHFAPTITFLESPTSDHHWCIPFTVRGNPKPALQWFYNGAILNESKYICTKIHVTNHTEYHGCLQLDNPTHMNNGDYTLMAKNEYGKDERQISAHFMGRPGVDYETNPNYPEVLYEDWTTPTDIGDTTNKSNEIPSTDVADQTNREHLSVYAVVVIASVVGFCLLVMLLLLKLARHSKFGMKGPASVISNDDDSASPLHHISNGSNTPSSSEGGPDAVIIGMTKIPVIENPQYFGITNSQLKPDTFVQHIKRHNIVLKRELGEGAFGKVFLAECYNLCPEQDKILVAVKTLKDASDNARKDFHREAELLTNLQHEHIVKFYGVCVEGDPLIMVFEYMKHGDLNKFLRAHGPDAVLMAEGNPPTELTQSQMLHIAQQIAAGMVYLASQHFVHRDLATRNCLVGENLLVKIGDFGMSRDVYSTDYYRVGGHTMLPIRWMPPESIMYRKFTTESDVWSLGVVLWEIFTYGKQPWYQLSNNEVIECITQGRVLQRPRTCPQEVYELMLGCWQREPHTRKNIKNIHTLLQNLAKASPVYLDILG
T2 sequence (Q63604 32-821): as above

Take `CCN(CC)C(=O)C1C=C2c3cccc4[nH]cc(c34)CC2N(C)C1` (stereo not shown) [LSD, lysergic acid diethylamide]: at TrkB, the “K (one phase decay, best-fit)” value came to 638387713; the “Plateau (one phase decay, best-fit)” value is given as 36.42; the “Span (one phase decay, best-fit)” value was 48.28; the “Tau (one phase decay, best-fit)” value is 1.57E-09. Also, the “Y0 (one phase decay, best-fit)” value at TrkB worked out at 84.7. The “Mean, figure 7g (repeated forced swimming test)” value in the test on mice (7 d, pretest = 100) is given as 81.36. In the test on mice (setting [2]), the “Mean Diff., figure 7f, WT+SAL vs. WT+LSD” value is reported as 34.99 and the “Mean Diff., figure 7f, Y433F+/-+SAL vs. Y433F+/-+LSD” value is 7.08. Further, the “Mean Diff. vs. Vehicle, figure 7g” value in the test on mice (7 d, vehicle minus treated, Bonferroni's multiple comparisons test) came out at 13.93. Further, the “antidepressant-like effect in rFST” value with mice (WT mice, 7 days after single administration) is “sustained antidepressant-like effect”. Further, the “Mean, figure 7f (repeated forced swimming test)” value in the test on mice (WT+LSD, 7 d, pretest = 100) is 60.98. Besides, the “Mean, figure 7f (repeated forced swimming test)” value in the test with mice (Y433F+/-+LSD, 7 d, pretest = 100) was 93.99. For the same compound, the “antidepressant-like effect in rFST” value with mice (Y433F^+/− mice) is recorded as “not Y433F^+/− mice”. Further, in test [1], the “TrkB:PLCγ1 colocalization in dendritic spines” value was “increase TrkB:PLCγ1 colocalization in dendritic spines”; the “Manders colocalization coefficient, group mean (5b)” value is given as 0.6227; the “Manders colocalization coefficient, group mean (5c)” value is given as 0.6899.

For the compound `COc1cccc([C@H](O)C2CCN(CCc3ccc(F)cc3)CC2)c1OC` [M100907], the “effect of pretreatment on antidepressant-like effect of LSD in rFST” value in the test on mice (M100907 0.5 mg kg^−1) is “did not prevent the antidepressant-like effect of LSD”.

Regarding `CN(C)CCc1c[nH]c2cccc(O)c12` [PSI, psilocin], at TrkB, the “K (one phase decay, best-fit)” value amounted to 89050556; the “Plateau (one phase decay, best-fit)” value is 38.6; the “Span (one phase decay, best-fit)” value is given as 50.23; the “Tau (one phase decay, best-fit)” value came out at 1.12E-08. The “Y0 (one phase decay, best-fit)” value at TrkB is given as 88.84. Also, in test [1], the “TrkB:PLCγ1 colocalization in dendritic spines” value was “increase TrkB:PLCγ1 colocalization in dendritic spines”; the “Manders colocalization coefficient, group mean (5b)” value turned out to be 0.5082; the “Manders colocalization coefficient, group mean (5c)” value stood at 0.7477.
